Reference: PubChem BioAssay AID2060498 (Molecular Pharmacology Branch, DTP, NCI, 2025)

Tested on: 171881-019-R-J1-PDC tumor spheroids, viability
Test: Anticancer human tumor 171881-019-R-J1-PDC patient-derived invasive breast carcinoma cell line growth inhibition [GQUAD]
Details: spheroids with HUVEC and MSC; for IC50: curve of first compound; for viability, T/C: stronger effect = lower value
How it was run: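 Viability of tumor cells grown as complex spheroids with endothelial and stromal cells, exposed to drug combinations. Top concentration at or near clinical Cmax (else 10 microM), diluted in half-log increments.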

[1] = second compound 0.0316 µM, first compound 0.0316 µM
[2] = second compound 0.0316 µM, first compound 0.1 µM
[3] = second compound 0.0316 µM, first compound 0.316 µM
[4] = second compound 0.0316 µM, first compound 1 µM
[5] = second compound 0.0316 µM, first compound 3.16 µM
[6] = second compound 0.0316 µM, first compound 10 µM
[7] = second compound 0.1 µM, first compound 0.0316 µM
[8] = second compound 0.1 µM, first compound 0.1 µM
[9] = second compound 0.1 µM, first compound 0.316 µM
[10] = second compound 0.1 µM, first compound 1 µM
[11] = second compound 0.1 µM, first compound 3.16 µM
[12] = second compound 0.1 µM, first compound 10 µM
[13] = second compound 0.316 µM, first compound 0.0316 µM
[14] = second compound 0.316 µM, first compound 0.1 µM
[15] = second compound 0.316 µM, first compound 0.316 µM
[16] = second compound 0.316 µM, first compound 1 µM
[17] = second compound 0.316 µM, first compound 3.16 µM
[18] = second compound 0.316 µM, first compound 10 µM
[19] = second compound 1 µM, first compound 0.0316 µM
[20] = second compound 1 µM, first compound 0.1 µM
[21] = second compound 1 µM, first compound 0.316 µM
[22] = second compound 1 µM, first compound 1 µM
[23] = second compound 1 µM, first compound 3.16 µM
[24] = second compound 1 µM, first compound 10 µM
[25] = second compound 3.16 µM, first compound 0.0316 µM
[26] = second compound 3.16 µM, first compound 0.1 µM
[27] = second compound 3.16 µM, first compound 0.316 µM
[28] = second compound 3.16 µM, first compound 1 µM
[29] = second compound 3.16 µM, first compound 3.16 µM
[30] = second compound 3.16 µM, first compound 10 µM
[31] = second compound 10 µM, first compound 0.0316 µM
[32] = second compound 10 µM, first compound 0.1 µM
[33] = second compound 10 µM, first compound 0.316 µM
[34] = second compound 10 µM, first compound 1 µM
[35] = second compound 10 µM, first compound 3.16 µM
[36] = second compound 10 µM, first compound 10 µM
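Wherever viability, T/C is given: 100% = DMSO vehicle control viability.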

With `CC(C)(O)C1CCC(Nc2ccc3ncc(-c4cccc(C(F)(F)F)c4)n3n2)CC1` (stereo unspecified) + Cc1[nH]c2ccc(F)cc2c1-c1nc2c3cccnc3c3ncccc3c2[nH]1 the IC50 (second compound 0.0316 µM) was 1830 nM, the IC50 (second compound 0.1 µM) was 1820 nM and the IC50 (second compound 0.316 µM) was 1390 nM. For the same compound, the IC50 (second compound 1 µM) was 614 nM, the IC50 (second compound 3.16 µM) was < 31.6 nM and the IC50 (second compound 10 µM) was < 31.6 nM. It also gave a viability, T/C [1] of 94.8%, a viability, T/C [2] of 104% and a viability, T/C [3] of 88.4%. It also gave a viability, T/C [4] of 74.5%, a viability, T/C [5] of 23.8% and a viability, T/C [6] of 32%. The viability, T/C [7] was 99.5%, the viability, T/C [8] was 96.7% and the viability, T/C [9] was 97.8%. The viability, T/C [10] was 73.5%, the viability, T/C [11] was 25.4% and the viability, T/C [12] was 31.1%. The viability, T/C [13] was 78.7%, the viability, T/C [14] was 71.6% and the viability, T/C [15] was 66.2%. For the same compound, the viability, T/C [16] was 60%, the viability, T/C [17] was 24% and the viability, T/C [18] was 25.4%. For the same compound, the viability, T/C [19] was 63.6%, the viability, T/C [20] was 47.6% and the viability, T/C [21] was 58.8%. For the same compound, the viability, T/C [22] was 45.2%, the viability, T/C [23] was 16.4% and the viability, T/C [24] was 10.9%. The viability, T/C [25] was 6.94%, the viability, T/C [26] was 4.45% and the viability, T/C [27] was 5.15%. It also gave a viability, T/C [28] of 3.84%, a viability, T/C [29] of 2.07% and a viability, T/C [30] of 0.75%. The viability, T/C [31] was 36.5%, the viability, T/C [32] was 42% and the viability, T/C [33] was 28.6%. It also gave a viability, T/C [34] of 24.1%, a viability, T/C [35] of 5.07% and a viability, T/C [36] of 3.8%.

With `CCCS(=O)(=O)Nc1ccc(F)c(C(=O)c2c[nH]c3ncc(-c4ccc(Cl)cc4)cc23)c1F` + Cc1[nH]c2ccc(F)cc2c1-c1nc2c3cccnc3c3ncccc3c2[nH]1 the IC50 (second compound 0.0316 µM) was 9320 nM, the IC50 (second compound 0.1 µM) was 8860 nM and the IC50 (second compound 0.316 µM) was 7730 nM. For the same compound, the IC50 (second compound 1 µM) was 5620 nM, the IC50 (second compound 3.16 µM) was < 31.6 nM and the IC50 (second compound 10 µM) was 31.6 nM. For the same compound, the viability, T/C [1] was 104%, the viability, T/C [2] was 106% and the viability, T/C [3] was 102%. The viability, T/C [4] was 121%, the viability, T/C [5] was 99% and the viability, T/C [6] was 46.7%. It also gave a viability, T/C [7] of 105%, a viability, T/C [8] of 106% and a viability, T/C [9] of 105%. The viability, T/C [10] was 107%, the viability, T/C [11] was 110% and the viability, T/C [12] was 43.3%. The viability, T/C [13] was 90.2%, the viability, T/C [14] was 77.2% and the viability, T/C [15] was 98.2%. The viability, T/C [16] was 93.2%, the viability, T/C [17] was 95.8% and the viability, T/C [18] was 38.1%. The viability, T/C [19] was 73.7%, the viability, T/C [20] was 60.8% and the viability, T/C [21] was 82.4%. For the same compound, the viability, T/C [22] was 80.7%, the viability, T/C [23] was 77.4% and the viability, T/C [24] was 25%. For the same compound, the viability, T/C [25] was 7.61%, the viability, T/C [26] was 8.32% and the viability, T/C [27] was 6.95%. The viability, T/C [28] was 5.17%, the viability, T/C [29] was 12.6% and the viability, T/C [30] was 8.93%. For the same compound, the viability, T/C [31] was 46.9%, the viability, T/C [32] was 45.5% and the viability, T/C [33] was 44.4%. It also gave a viability, T/C [34] of 55.2%, a viability, T/C [35] of 51.3% and a viability, T/C [36] of 18.5%.

For `Cc1[nH]c2ccccc2c1CCNCc1ccc(/C=C/C(=O)NO)cc1` + Cc1[nH]c2ccc(F)cc2c1-c1nc2c3cccnc3c3ncccc3c2[nH]1, the IC50 (second compound 0.0316 µM) was 59.6 nM, the IC50 (second compound 0.1 µM) was 64.8 nM and the IC50 (second compound 0.316 µM) was 49.1 nM. For the same compound, the IC50 (second compound 1 µM) was 32.5 nM, the IC50 (second compound 3.16 µM) was < 0.999 nM and the IC50 (second compound 10 µM) was < 0.999 nM. For the same compound, the viability, T/C (second compound 0.0316 µM, first compound 0.000999 µM) was 109%, the viability, T/C (second compound 0.0316 µM, first compound 0.00316 µM) was 107% and the viability, T/C (second compound 0.0316 µM, first compound 0.00999 µM) was 94.6%. The viability, T/C [1] was 84.6%, the viability, T/C (second compound 0.0316 µM, first compound 0.0999 µM) was 22.5% and the viability, T/C [3] was 0.66%. It also gave a viability, T/C (second compound 0.1 µM, first compound 0.000999 µM) of 90.7%, a viability, T/C (second compound 0.1 µM, first compound 0.00316 µM) of 98.2% and a viability, T/C (second compound 0.1 µM, first compound 0.00999 µM) of 99.5%. The viability, T/C [7] was 91.7%, the viability, T/C (second compound 0.1 µM, first compound 0.0999 µM) was 24.8% and the viability, T/C [9] was 0.58%. For the same compound, the viability, T/C (second compound 0.316 µM, first compound 0.000999 µM) was 91.7%, the viability, T/C (second compound 0.316 µM, first compound 0.00316 µM) was 72.2% and the viability, T/C (second compound 0.316 µM, first compound 0.00999 µM) was 85.5%. The viability, T/C [13] was 63.3%, the viability, T/C (second compound 0.316 µM, first compound 0.0999 µM) was 27% and the viability, T/C [15] was 0.34%. It also gave a viability, T/C (second compound 1 µM, first compound 0.000999 µM) of 66.8%, a viability, T/C (second compound 1 µM, first compound 0.00316 µM) of 55.9% and a viability, T/C (second compound 1 µM, first compound 0.00999 µM) of 63.1%. The viability, T/C [19] was 50.3%, the viability, T/C (second compound 1 µM, first compound 0.0999 µM) was 20.4% and the viability, T/C [21] was 0.35%. The viability, T/C (second compound 3.16 µM, first compound 0.000999 µM) was 9.69%, the viability, T/C (second compound 3.16 µM, first compound 0.00316 µM) was 7.8% and the viability, T/C (second compound 3.16 µM, first compound 0.00999 µM) was 7.35%. For the same compound, the viability, T/C [25] was 5.79%, the viability, T/C (second compound 3.16 µM, first compound 0.0999 µM) was 1.55% and the viability, T/C [27] was 0.52%. For the same compound, the viability, T/C (second compound 10 µM, first compound 0.000999 µM) was 43.6%, the viability, T/C (second compound 10 µM, first compound 0.00316 µM) was 46.2% and the viability, T/C (second compound 10 µM, first compound 0.00999 µM) was 41.6%. The viability, T/C [31] was 46.7%, the viability, T/C (second compound 10 µM, first compound 0.0999 µM) was 13.9% and the viability, T/C [33] was 0.41%.
